# Test: Solubilisation of resveratrol in the self emulsifying cosmetic base (mixing at 30-40° C.)
# Type: physicochemical
# Settings: Example 2, no co-emulsifier, continuous mixing at 30-40° C.
# Procedure: A self emulsifying cosmetic base exempt of co-emulsifier was prepared by dissolving resveratrol in trilaureth-4 phosphate by continuous mixing at moderate temperature (30-40° C.). […] In all cases spontaneously an aqueous emulsion was formed which upon separation (after >1 week) could be easily re-formed by mere shaking.
compound,measurement,value
Oc1ccc(/C=C/c2cc(O)cc(O)c2)cc1 [resveratrol],appearance after dissolving resveratrol in trilaureth-4 phosphate,clear solution
